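Cultured in 96-well plates, cells were exposed to test compound for 48 hours across five concentrations. Abbreviation: GI50, concentration required for 50% inhibition of growth. Definition used: TGI = concentration required for complete inhibition of growth.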
Tests used:
Experiment in all cases: NCI-60 cell line screen, 48 h
[1] = test system: DU-145 prostate
[2] = test system: SK-MEL-5 melanoma
[3] = test system: MDA-MB-231 breast
[4] = test system: HCC-2998 colon
[5] = test system: M14 melanoma
[6] = test system: MOLT-4 leukemia
[7] = test system: PC-3 prostate
[8] = test system: SR leukemia
[9] = test system: HOP-92 NSCLC
[10] = test system: ACHN renal

Row | SMILES | GI50 [1] [µM] | TGI [1] [µM] | TGI [2] [µM] | GI50 [3] [µM] | TGI [3] [µM] | TGI [4] [µM] | TGI [5] [µM] | TGI [6] [µM] | GI50 [7] [µM] | TGI [7] [µM] | TGI [8] [µM] | TGI [9] [µM] | TGI [10] [µM] | GI50 [2] [µM] | GI50 [5] [µM] | GI50 [6] [µM] | GI50 [8] [µM] | GI50 [10] [µM] | GI50 [4] [µM] | GI50 [9] [µM]
1 | CN(C)c1ccc(/C=C(/NC(=O)c2ccccc2)c2nc3ccc(Cl)cc3[nH]2)cc1 | 71.5 | > 100 | 39.3 | 28.4 | > 95.3 | > 75.5 | > 100 | 71.1 | 29.2 | > 100 | > 89.4 | 80.1 | > 100 | – | – | – | – | – | – | –
2 | CN(C)c1ccc(C(=C2C=CC(=[N+](C)C)C=C2)c2ccc(N(C)C)cc2)cc1 (tested in a mixture with another compound) | 0.0543 | 1.28 | 0.289 | 0.205 | 1.03 | 1.53 | – | 5.67 | 0.0368 | 1.6 | 0.106 | 0.714 | 1.48 | 0.133 | 0.088 | 0.293 | 0.0313 | 0.233 | – | –
3 | COc1cc(NCCCCN=C(N)NC(N)=NC(C)C)c2ncccc2c1 | 21 | > 59.9 | 10.7 | 1.94 | 17.8 | 14.2 | 38.3 | 16.6 | 2.22 | 16.8 | 32.6 | 12.5 | > 100 | 2.84 | 14.6 | 3.28 | 7.01 | > 73.7 | 2.52 | 1.28
4 | CC(C)(C)[Si](C)(C)OCC1OC(n2cnc3c(NC(=O)c4ccccc4)ncnc32)CC1O (stereo not given) | – | > 100 | 33.3 | – | 55.7 | 88.6 | 38.5 | 49.9 | – | 95.5 | 49.6 | 55.2 | 95.4 | – | – | – | – | – | – | –
5 | CCCCCCCC/C=C/CCCCCCCCC1=NCCN1CCO | 7.28 | 19.6 | 19.9 | 1.99 | 4.19 | 34.2 | 5.11 | 4.73 | 2.61 | 9.14 | 4.95 | 3.4 | 8.39 | 5.84 | 2.16 | 2.1 | 1.9 | 2.6 | 14.2 | 0.976
6 | CC(=O)OC1CC(n2cc(F)c(=O)[nH]c2=O)OC1CO (stereo not given) | – | > 100 | 16.2 | – | > 100 | 8.33 | 45.6 | > 100 | – | > 100 | > 100 | > 69 | > 77.8 | – | – | – | – | – | – | –
7 | CCCCCC(O)C1C(=O)OC(C)C(O)/C=C/C=C/C=C/C=C\C=C(\C)C(O)CC(O)CC(O)CC(O)CC(O)CC(O)CC1O (stereo not given) | > 100 | > 100 | > 100 | > 100 | > 100 | > 100 | > 100 | > 100 | > 100 | > 100 | > 100 | > 100 | > 100 | > 100 | > 100 | > 100 | > 100 | > 100 | > 100 | > 100
8 | C=C(C)[C@@H]1CC[C@]2(C)[C@H](C(=O)C=C3[C@@H]4C[C@](C)(C(=O)N5CCN(C)CC5)CC[C@]4(C)CC[C@]32C)[C@@]1(C)CCC#N | 7.85 | 15.3 | 13.9 | 7.58 | 14.6 | 13.6 | 14.1 | 10.9 | 3.17 | 10.4 | 9.07 | 10.2 | 13.5 | 7.3 | 6.86 | 2.95 | 1.78 | 7.02 | 6.72 | 3.25
9 | Cc1nc2sccn2c(=O)c1CCN1CCC(=C(c2ccc(F)cc2)c2ccc(F)cc2)CC1 | 15.7 | 30.4 | 15 | 15.2 | 31.9 | 27.5 | 24.8 | 29.9 | 4.81 | 19.3 | 26.7 | 19.2 | 26.3 | 4.01 | 9.53 | 8.52 | 0.551 | 13.4 | 12.3 | 5.16
10 | COc1ccc(NC(=O)n2nc(N)c3ccccc32)cc1OC | 73.1 | > 100 | > 100 | 53.6 | > 100 | > 100 | > 100 | > 100 | 35.5 | > 100 | > 100 | > 100 | > 100 | 27.9 | 65 | 39.4 | 29.3 | 58.3 | 61.1 | 24.6
11 | O=[N+]([O-])c1ccc(-c2nc(-c3ccccc3)c(-c3ccccc3)n2-c2ccccc2)cc1 | 2.72 | 12.2 | 3.81 | 2.36 | 7.04 | 4.1 | 16 | 11.5 | 2.74 | > 31.1 | > 100 | 7.44 | 27.4 | 1.8 | 3.57 | 2.28 | 6.2 | 2.62 | 2.07 | 2.42
12 | CCOc1ccc([C@@H]2[C@@H](Oc3ccccc3)C(=O)N2c2cc(OC)c(OC)c(OC)c2)cc1 | 0.218 | > 100 | 1.16 | 0.177 | > 100 | > 100 | > 100 | > 100 | 0.0706 | > 100 | > 100 | > 100 | > 100 | 0.0395 | 0.04 | 0.17 | 0.0483 | 0.07 | 0.468 | 0.642
13 | COc1cccc(C2C(C#N)=C(N)Oc3cc(N)ccc32)c1 (stereo not given) | 0.71 | 34 | > 61.8 | 1.29 | 59.6 | > 100 | > 100 | > 52.3 | 0.509 | > 100 | > 100 | 58.3 | > 100 | 0.396 | 0.341 | 0.563 | 0.3 | 0.762 | 0.82 | 0.31
14 | NC(N)=NS(=O)(=O)c1ccc(NCc2c3ccccc3nc3ccccc23)cc1 | – | > 100 | 62.8 | – | > 100 | 66.1 | 64.7 | > 16.5 | – | > 100 | 12.6 | 9.01 | 30.5 | – | – | – | – | – | – | –
15 | COc1ccc(C(=O)c2ccc(OC)c(OC)c2OC)cc1 | 2.14 | 10.6 | 37.2 | 3.63 | > 100 | > 100 | 71.2 | > 100 | 3.21 | > 100 | > 100 | > 100 | > 100 | 1.68 | 1.32 | 1.11 | 0.347 | 6.56 | 2.76 | 5.4

From PubChem BioAssay (NCI)
